The source of these data is patent publication US20240025856A1, “1,2,3,4-TETRAHYDROQUINOLINE DERIVATIVES AS INHIBITORS OF THE YAP/TAZ-TEAD ACTIVATION FOR TREATING CANCER” (KATHOLIEKE UNIVERSITEIT LEUVEN, priority 2020, published 2024).

Molecules are shown by their SMILES.

The subject of assay [1] is YAP/TAZ-TEAD transcription. Description: Reporter gene assay for measuring the inhibition of YAP/TAZ-TEAD transcription (TEAD-responsive element luciferase reporter in Hek293T cells). The format is cell-based. The note with it: Homo sapiens, HEK-293T, 24 h, Hek293T cells transiently transfected with TEAD-responsive element luciferase reporter; 24 hours incubation. Summed up:
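Hek293T cells transiently transfected with a TEAD-responsive element luciferase reporter, plated onto pre-diluted compounds and incubated 24 h at 37 °C/5% CO2. Luminescence read after SteadyLite addition; % inhibition from RLU relative to vehicle (0%) and a positive control inhibitor (100%), giving IC50.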

The next assay concerns NCI-1H226. Description: Mesothelioma cell line proliferation assay, H226 (ATPlite). The format is cell-based. Conditions: Homo sapiens, NCI-H226, 144 h, 6 days with compound. The procedure: Mesothelioma cell lines, NCI-1H226 and NCI-1H2052 (all sourced from the ATCC cell culture collection) are plated in 96-well plates (Corning® 96 Well White Polystyrene Microplate clear flat bottom, white polystyrene (TC-Treated)), at 1500 cells/well in full medium (RPMI 1640 ATCC modification with L-glutamine, HEPES, Phenol Red, Sodium Pyruvate, High glucose, Low sodium bicarbonate and 10% fetal bovine serum). Cells are incubated overnight at 37° C. in an incubator with 5% C02. Then compounds, dissolved in DMSO, are added in dose-response. Cells are incubated with compound dilutions for another 6 days at 37° C. in an incubator with 5% C02. Cell viability is quantitated using the ATPlite kit (Perkin-Elmer) and the luminescence is read-out using an Envision instrument (Perkin-Elmer). The amount of relative light units produced using the ATPlite kit is used to calculated percent of inhibition.
The activities of some example compounds are depicted in the table below. The activity ranges A, B and C refer to EC50 values in the mesothelioma cell line proliferation assay as described as follows: “A”: EC50<1 μM; “B”: 1 μM s EC50≤10 μM and “C”: EC50≥10 μM; NT: not tested.

In assay [1], `C=CC(=O)NC1Cc2ccccc2N(c2ccc(OC(F)(F)F)cc2)C1` (stereo not drawn) [compound 021, N-(1-(4-(trifluoromethoxy)phenyl)-1,2,3,4-tetrahydroquinolin-3-yl)acrylamide] showed an IC50 of under 1000 nM. In addition, the concentration for a half-maximal effect (EC50) in the assay on NCI-1H226 was under 1000 nM. Regarding `C=CC(=O)NC1Cc2ccccc2N(c2ccc(S(F)(F)(F)(F)F)cc2)C1` (stereo not drawn) [compound 023, N-(1-(4-(pentafluoro-λ^6-sulfaneyl)phenyl)-1,2,3,4-tetrahydroquinolin-3-yl)acrylamide], the half-maximal inhibitory concentration (IC50) in assay [1] is under 1000 nM. For the same molecule, the concentration giving a half-maximal response (EC50) in the assay with NCI-1H226 is under 1000 nM. In the case of `C=CC(=O)NC1Cc2ccccc2N(c2ccc(SC(F)(F)F)cc2)C1` (stereo not drawn) [compound 030, N-(1-(4-((trifluoromethyl)thio)phenyl)-1,2,3,4-tetrahydroquinolin-3-yl)acrylamide], the IC50 in assay [1] is under 1000 nM. The EC50 in the assay on NCI-1H226 is under 1000 nM. `C=CC(=O)NC1Cc2c(Cc3cccnc3)cccc2N(c2ccc(C(F)(F)F)cc2)C1` (stereo not drawn) [compound 059, N-(5-(pyridin-3-yl-methyl)-1-(4-(trifluoromethyl)phenyl)-1,2,3,4-tetrahydroquinolin-3-yl)acrylamide] had an IC50 in assay [1] of under 1000 nM. The EC50 in the assay with NCI-1H226 is under 1000 nM. With `C=CC(=O)NC1Cc2c(C)cccc2N(c2ccc(C(F)(F)F)cc2)C1` (stereo not drawn) [compound 064, N-(5-methyl-1-(4-(trifluoromethyl)phenyl)-1,2,3,4-tetrahydroquinolin-3-yl)acrylamide], in assay [1], the concentration for half-maximal inhibition (IC50) is under 1000 nM. Also, the EC50 with NCI-1H226 was under 1000 nM. The molecule `C=CC(=O)NC1Cc2c(OC)cccc2N(c2ccc(C(F)(F)F)cc2)C1` (stereo not drawn) [compound 073, N-(5-methoxy-1-(4-(trifluoromethyl)phenyl)-1,2,3,4-tetrahydroquinolin-3-yl)acrylamide] gave an IC50 in assay [1] of under 1000 nM. In addition, in the assay on NCI-1H226, the EC50 was under 1000 nM. As to `C=CC(=O)NCC1Cc2ccccc2N(c2ccc(C(F)(F)F)cc2F)C1` (stereo not drawn) [compound 113, N-((1-(2-fluoro-4-(trifluoromethyl)phenyl)-1,2,3,4-tetrahydroquinolin-3-yl)methyl)acrylamide], in assay [1], the IC50 is under 1000 nM. Also, the half-maximal effective concentration (EC50) in the assay with NCI-1H226 was under 1000 nM. With `C=CC(=O)NCC1Cc2c(C)cccc2N(c2ccc(C(F)(F)F)cc2)C1` (stereo not drawn) [compound 128, N-((5-methyl-1-(4-(trifluoromethyl)phenyl)-1,2,3,4-tetrahydroquinolin-3-yl)methyl)acrylamide], in assay [1], the 50% inhibitory concentration (IC50) is under 1000 nM. Also, the EC50 in the assay on NCI-1H226 was under 1000 nM. With `C=CC(=O)N(C)CC1Cc2ccccc2N(c2ccc(C(F)(F)F)cc2)C1` (stereo not drawn) [compound 134, N-methyl-N-((1-(4-(trifluoromethyl)phenyl)-1,2,3,4-tetrahydroquinolin-3-yl)methyl)acrylamide], in assay [1], the IC50 is under 1000 nM. Besides, the EC50 with NCI-1H226 was under 1000 nM.

`C=CC(=O)NC1Cc2ccccc2N(Cc2ccc(C(F)(F)F)cc2)C1` (stereo not drawn) [compound 181, N-(1-(4-(trifluoromethyl)benzyl)-1,2,3,4-tetrahydroquinolin-3-yl)acrylamide]: the IC50 in assay [1] was under 1000 nM. The EC50 with NCI-1H226 is under 1000 nM. In assay [1], `CCC(=O)NCC1CCc2ccccc2N1c1ccc(C(F)(F)F)cc1` (stereo not drawn) [compound 188, N-((1-(4-(trifluoromethyl)phenyl)-1,2,3,4-tetrahydroquinolin-2-yl)methyl)propionamide] gave an IC50 of over 20000 nM. In assay [1], `C=CC(=O)NCC1CCc2ccccc2N1Cc1ccc(C(F)(F)F)cc1` (stereo not drawn) [compound 189, N-((1-(4-(trifluoromethyl)benzyl)-1,2,3,4-tetrahydroquinolin-2-yl)methyl)acrylamide] displayed an IC50 of under 1000 nM.

In assay [1], `C=CC(=O)NCC1CCc2ccccc2N1Cc1cccc(C(F)(F)F)c1` (stereo not drawn) [compound 190, N-((1-(3-(trifluoromethyl)benzyl)-1,2,3,4-tetrahydroquinolin-2-yl)methyl)acrylamide] came in with an IC50 of under 1000 nM. Turning to `C=CC(=O)NC1Cc2ccccc2N(Cc2ccc(Br)cc2)C1` (stereo not drawn) [compound 191, N-(1-(4-bromobenzyl)-1,2,3,4-tetrahydroquinolin-3-yl)acrylamide], the IC50 in assay [1] was under 1000 nM.
